Source: PMC8279981, “A first-in-human, phase 1 study of the NEDD8 activating enzyme E1 inhibitor TAS4464 in patients with advanced solid tumors” (Investigational New Drugs, 2021)

Key:
[1] = tested on: advanced or metastatic solid tumors; assay: Phase 1 study: clinical response (RECIST v1.1), PFS; assay type: in vivo, human
Text: Secondary objectives included assessment of AEs, treatment-related AEs, objective response rate (ORR), disease control rate (DCR), progression-free survival (PFS), and PK, pharmacodynamic, and pharmacogenomic (PGx) parameters with TAS4464 administration. The National Cancer Institute Common Terminology Criteria for Adverse Events (NCI CTCAE) v4.03 [17] was used to assess the severity of AEs. The Medical Dictionary for Regulatory Activities (MedDRA) version 22.1 was used to classify AEs. RECIST v1.1 [16] was used to determine clinical response, and all computed tomography images were assessed by the physician at the study site after completion of the imaging procedure. The ORR was defined as the percentage of patients with the best overall response of complete response (CR) or partial response (PR). The DCR was the percentage of patients with a best overall response of CR, PR, stable disease (SD), or non-CR/non-progressive disease (PD). PFS was defined as the time from the date of enrollment until the date of investigator-assessed radiological disease progression or death due to any cause, whichever occurred first. The analysis populations included in the study are summarized in the Supplementary Appendix. DLTs were recorded by incidence and 95% confidence intervals (CI). Median PFS and 95% CIs were calculated using Kaplan–Meier methodology. Best overall response was tabulated, and the ORR and DCR with 95% CIs were calculated by dose level. PK parameters were evaluated using non-compartmental methods. For the pharmacodynamic parameter of cullin-NEDD8 in PBMC, summary statistics and a scatter plot of the percentage change from baseline were produced. Missing data were not imputed. […] SAS software v9.4 (SAS Institute Inc., Cary NC, USA) was used for all statistical processing.

[2] = Plasma pharmacokinetics of TAS4464 in patients; assay type: in vivo, human
Protocol: (§1) The PK endpoints included maximum plasma concentration (Cmax), area under the concentration–time curve from time zero up to the last observable concentration (AUC0-last) and plasma accumulation of TAS4464 after multiple doses. PK parameters were evaluated on Day 1 of Cycle 1 and Day 15 of Cycle 1 in the weekly dosing cohort, as well as on Day 1 of the lead-in period and Day 1 of Cycle 1 in the weekly with lead-in dosing cohort. The evaluation of the relationship between solute carrier organic anion transporter family member 1B1 (SLCO1B1) genetic polymorphisms and PK (i.e., the mean and individual clearance [CL] and volume of distribution at steady-state [Vdss] by each OATP1B1 phenotype) was assessed as the PGx analysis endpoint.
The analysis populations included in the study are summarized in the Supplementary Appendix. DLTs were recorded by incidence and 95% confidence intervals (CI). Median PFS and 95% CIs were calculated using Kaplan–Meier methodology. Best overall response was tabulated, and the ORR and DCR with 95% CIs were calculated by dose level. PK parameters were evaluated using non-compartmental methods. For the pharmacodynamic parameter of cullin-NEDD8 in PBMC, summary statistics and a scatter plot of the percentage change from baseline were produced. Missing data were not imputed. […] SAS software v9.4 (SAS Institute Inc., Cary NC, USA) was used for all statistical processing.

OATP1B1 = assay: Pharmacogenomics: SLCO1B1 polymorphisms versus PK; assay type: in vivo, human; conditions: phenotype assigned by SLCO1B1 genotypes; data not shown
Protocol: as §1

[3] = tested on: p27^Kip1 protein expression; assay: p27^Kip1 immunohistochemistry in biopsy tumor specimens; assay type: in vivo, human; conditions: Day 2 of Cycle 1, three patients; data not shown
Protocol: Assessment of pharmacodynamics included evaluation of cullin-NEDD8, p27^Kip1 protein expression, and cytokines in peripheral blood samples. Expression of cullin-NEDD8 protein in peripheral blood mononuclear cells (PBMC) was analyzed using an enzyme-linked immunosorbent assay (ELISA). For the weekly dosing cohorts, changes from baseline in cullin-NEDD8 complexes in the PBMC on Day 1 and Day 2 of Cycle 1 as measured by ELISA were evaluated. For the weekly dosing with lead-in period cohorts, changes from baseline in cullin-NEDD8 complexes on Day 2 were evaluated. Expression of p27^Kip1 protein (cyclin-dependent kinase inhibitor 1B), a substrate of CRL, was determined by immunohistochemistry (IHC). p27^Kip1 IHC was performed on biopsy tumor specimens collected at baseline and Day 2 of Cycle 1, and their staining intensities were assessed using H-Scoring, with the scores compared between baseline and Day 2 of Cycle 1. […]

tumor cell lines = conditions: cited from earlier work
[4] = tested on: nuclear factor κB (NFκB) activation; design: method as in PMID 31583781; conditions: multiple myeloma models; cited from earlier work
dog = tested on: dog; design: method as in unpublished data; conditions: TAS4464 without a N,N-dimethylacetamide group; ref unpublished data; cited from earlier work
[5] = weekly dosing Level 1 (10 mg/m^2), n = 1
[6] = weekly dosing Level 2 (20 mg/m^2), n = 1
[7] = weekly dosing Level 3 (40 mg/m^2), n = 3
[8] = weekly dosing Level 4 (56 mg/m^2), n = 5
[9] = weekly dosing with lead-in Level 3 (20 → 40 mg/m^2), n = 3
[10] = weekly dosing with lead-in Level 4 (20 → 56 mg/m^2), n = 3
[11] = weekly dosing with lead-in Total, n = 6
[12] = plasma, multiple doses, data not shown

## CCOc1cccc(F)c1C#Cc1cn([C@@H]2O[C@H](CNS(N)(=O)=O)[C@@H](O)[C@H]2O)c2ncnc(N)c12 [TAS4464]
[1]; Total, N = 16
  Disease control rate (CR + PR + SD + non-CR/non-PD): 5 (31.3) n (%)
  Not evaluable (best overall response): 1 (6.3) n (%)
  PD (best overall response): 10 (62.5) n (%)
  Response rate (CR + PR): 0 n (%)
[1]; [5]
  Disease control rate (CR + PR + SD + non-CR/non-PD): 1 (100.0) n (%)
  Not evaluable (best overall response): 0 n (%)
  PD (best overall response): 0 n (%)
  Response rate (CR + PR): 0 n (%)
[1]; [6]
  Disease control rate (CR + PR + SD + non-CR/non-PD): 1 (100.0) n (%)
  Not evaluable (best overall response): 0 n (%)
  PD (best overall response): 0 n (%)
  Response rate (CR + PR): 0 n (%)
[1]; [7]
  Disease control rate (CR + PR + SD + non-CR/non-PD): 1 (33.3) n (%)
  Not evaluable (best overall response): 0 n (%)
  PD (best overall response): 2 (66.7) n (%)
  Response rate (CR + PR): 0 n (%)
[1]; [8]
  Disease control rate (CR + PR + SD + non-CR/non-PD): 2 (40.0) n (%)
  Not evaluable (best overall response): 0 n (%)
  PD (best overall response): 3 (60.0) n (%)
  Response rate (CR + PR): 0 n (%)
[1]; weekly dosing Total, N = 10
  Disease control rate (CR + PR + SD + non-CR/non-PD): 5 (50.0) n (%)
  Not evaluable (best overall response): 0 n (%)
  PD (best overall response): 5 (50.0) n (%)
  Response rate (CR + PR): 0 n (%)
[1]; weekly dosing cohort
  best overall response: no patients showed a CR or PR
[1]; weekly dosing cohort, 10 patients, 95% CI 18.7–81.3
  DCR: 50.0%
[1]; weekly dosing cohort, 95% CI 1.0–7.0
  median PFS: 3.7 months
[1]; [9]
  Disease control rate (CR + PR + SD + non-CR/non-PD): 0 n (%)
  Not evaluable (best overall response): 0 n (%)
  PD (best overall response): 3 (100.0) n (%)
  Response rate (CR + PR): 0 n (%)
[1]; [10]
  Disease control rate (CR + PR + SD + non-CR/non-PD): 0 n (%)
  Not evaluable (best overall response): 1 (33.3) n (%)
  PD (best overall response): 2 (66.7) n (%)
  Response rate (CR + PR): 0 n (%)
[1]; [11]
  Disease control rate (CR + PR + SD + non-CR/non-PD): 0 n (%)
  Not evaluable (best overall response): 1 (16.7) n (%)
  PD (best overall response): 5 (83.3) n (%)
  Response rate (CR + PR): 0 n (%)
[1]; weekly dosing with lead-in period cohort
  best overall response: no patients showed CR, PR, or SD
[1]; weekly dosing with lead-in period cohort, 95% CI 0.5–2.9
  median PFS: 1.5 months
[2]; dose range of 10–56 mg/m^2
  dose dependence of Cmax and AUC: generally increased with increasing dose
[2]; [12]
  accumulation ratio of AUC0-last [R (AUC0-last)]: ~1.0
  accumulation ratio of Cmax [R (Cmax)]: ~1.0
OATP1B1
  mean and individual CL and Vdss by OATP1B1 phenotype: no obvious differences were observed
[3]
  expression of p27^Kip1 in tumor specimens versus baseline: almost unchanged or decreased
Tumor cell lines; compared with MLN4924
  inhibitory effects in cells: greater inhibitory effects than MLN4924
Tumor cell lines; dose- and time-dependent increase
  time course of antiproliferative effects: plateauing after 24 h
[4]
  mechanism of antitumor activity: inhibition of nuclear factor κB (NFκB) activation
dog
  toxic liver findings: toxic liver findings were not observed
